Reference: US20150105252A1, “SUBSTITUTED PYRAZOLES AS HERBICIDES” (E I DU PONT DE NEMOURS AND COMPANY, priority 2013, published 2015)

Experiments:
[1] = tested on: pigweed; assay: Test A preemergence; assay type: in vivo, Amaranthus retroflexus; conditions: preemergence
In short: (§1)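 Injury readout: eye-scored versus untreated controls, 0 to 100. Exposure period: ~10 days, greenhouse. Application: soil-directed spray over sown seed (pre) or spray on seedlings 2–10 cm tall with one or two leaves (post), compound carried in non-phytotoxic solvent including surfactant.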

[2] = tested on: pigweed; assay: Test A postemergence; assay type: in vivo, Amaranthus retroflexus
In short: as §1

[3] = tested on: wheat; assay: Test A postemergence; assay type: in vivo, Triticum aestivum
In short: as §1

[4] = tested on: barnyardgrass; assay: Test B flood; assay type: in vivo, Echinochloa crus-galli; conditions: 250 g ai/ha, visual rating on 0 to 100 scale (0 no effect, 100 complete control), 13 to 15 days
In short: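 At two leaves, seedlings received the test compound via the paddy water, pots having been flooded 3 cm over the soil surface and kept so. Greenhouse-held for 13 to 15 days, then judged by eye against controls on a scale running 0 (no effect) to 100 (complete control).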

[5] = tested on: blackgrass; assay: Test C preemergence; assay type: in vivo, Alopecurus myosuroides; conditions: for Blackgrass plant response rating / Plant response rating, Blackgrass: preemergence; for Plant response rating, Blackgrass: 125 g ai/ha, scale 0 to 100, 0 = no effect, 100 = complete control
In short: (§2)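 Visual rating, 0–100 scale (0 no effect, 100 complete control), vs untreated controls after 13–15 d greenhouse. Pre: seeds in loam/sand, treated at sowing. Post: plants in peat-based mix, 1- to 4-leaf (2–18 cm). Solvent + surfactant formulation, non-phytotoxic.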

[6] = tested on: ryegrass, Italian; assay: Test C preemergence; assay type: in vivo, Lolium multiflorum; conditions: for Ryegrass, Italian plant response rating / Plant response rating, Ryegrass, Italian: preemergence; for Plant response rating, Ryegrass, Italian: 125 g ai/ha, scale 0 to 100, 0 = no effect, 100 = complete control
In short: as §2

[7] = tested on: crabgrass, large; assay: Test C preemergence; assay type: in vivo, Digitaria sanguinalis; conditions: for Crabgrass, Large plant response rating / Plant response rating, Crabgrass, Large: preemergence; for Plant response rating, Crabgrass, Large: 125 g ai/ha, scale 0 to 100, 0 = no effect, 100 = complete control
In short: as §2

[8] = tested on: foxtail, giant; assay: Test C preemergence; assay type: in vivo, Setaria faberii; conditions: for Foxtail, Giant plant response rating / Plant response rating, Foxtail, Giant: preemergence; for Plant response rating, Foxtail, Giant: 125 g ai/ha, scale 0 to 100, 0 = no effect, 100 = complete control
In short: as §2

[9] = tested on: oilseed rape; assay: Test C preemergence; assay type: in vivo, Brassica napus; conditions: for Oilseed Rape plant response rating / Plant response rating, Oilseed Rape: preemergence; for Plant response rating, Oilseed Rape: 125 g ai/ha, scale 0 to 100, 0 = no effect, 100 = complete control
In short: as §2

[10] = tested on: wheat; assay: Test C postemergence; assay type: in vivo, Triticum aestivum; conditions: for Plant response rating (scale of 0 to 100 where 0 is no effect and 100 is complete control), Wheat: Postemergence, 31 g ai/ha, visually evaluated after 13 to 15 days; for Wheat plant response rating / Plant response rating, Wheat: postemergence; for Wheat plant response rating: 62 g ai/ha, scale 0 to 100
In short: as §2

[11] = tested on: galium; assay: Test C postemergence; assay type: in vivo, Galium aparine; conditions: for Plant response rating (scale of 0 to 100 where 0 is no effect and 100 is complete control), Galium: Postemergence, 31 g ai/ha, visually evaluated after 13 to 15 days; for Galium plant response rating / Plant response rating, Galium: postemergence; for Galium plant response rating: 62 g ai/ha, scale 0 to 100
In short: as §2

[12] = tested on: corn; assay: Test C postemergence; assay type: in vivo, Zea mays; conditions: for Plant response rating (scale of 0 to 100 where 0 is no effect and 100 is complete control), Corn: Postemergence, 31 g ai/ha, visually evaluated after 13 to 15 days; for Corn plant response rating / Plant response rating, Corn: postemergence; for Corn plant response rating: 62 g ai/ha, scale 0 to 100
In short: as §2

[13] = 125 g ai/ha, visual injury, 0 to 100 scale, approx. 10 days
[14] = 500 g ai/ha, visual injury after approx. 10 days, 0 to 100 scale (0 no effect, 100 complete control)
[15] = Postemergence, 500 g ai/ha, 0 to 100 scale (0 no effect, 100 complete control)
[16] = postemergence, 125 g ai/ha, about 10 days, visual rating on 0 to 100 scale (0 no effect, 100 complete control)
[17] = 31 g ai/ha, visual rating, scale 0 to 100 (0 no effect, 100 complete control), 13 to 15 days
[18] = 62 g ai/ha, scale 0 to 100 (0 no effect, 100 complete control), 13 to 15 days
[19] = 250 g ai/ha, scale 0 to 100 (0 no effect, 100 complete control)
[20] = 125 g ai/ha, scale 0 to 100, 0 no effect, 100 complete control
[21] = 250 g ai/ha, scale 0 to 100, 0 is no effect, 100 is complete control

CCOc1cc(C(=O)NCC(F)(F)F)nn1Cc1ccnc(OC(F)F)c1 [Compound 128]
100: Pigweed plant response rating [1, 13] | Pigweed plant response rating [1, 14] | Pigweed plant response rating [2, 15] | Pigweed plant response rating [2, 16] | Plant response rating (scale of 0 to 100), Crabgrass, Large ([7]; Preemergence, 250 g ai/ha) | Crabgrass, Large plant response rating [7, 17] | Plant response rating, Crabgrass, Large ([7]; 13 to 15 days) | Plant response rating (scale of 0 to 100), Foxtail, Giant ([8]; Preemergence, 250 g ai/ha) | Foxtail, Giant plant response rating [8, 18] | Plant response rating, Foxtail, Giant ([8]; 13 to 15 days) | Plant response rating (scale of 0 to 100), Oilseed Rape ([9]; Preemergence, 250 g ai/ha) | Oilseed Rape plant response rating [9, 17] | Oilseed Rape plant response rating [9, 18] | Plant response rating, Oilseed Rape ([9]; 13 to 15 days)
90: Wheat plant response rating [3, 15] | Plant response rating (scale of 0 to 100), Blackgrass ([5]; Preemergence, 250 g ai/ha) | Blackgrass plant response rating [5, 18] | Plant response rating, Blackgrass ([5]; 13 to 15 days) | Plant response rating, Ryegrass, Italian ([6]; 13 to 15 days)
65: Galium plant response rating [11]
98: Foxtail, Giant plant response rating [8, 17]
80: Plant response rating, Galium [11, 20]
5: Ryegrass, Italian plant response rating [6, 17] | Plant response rating (scale of 0 to 100 where 0 is no effect and 100 is complete control), Wheat [10] | Wheat plant response rating [10] | Plant response rating, Wheat [10, 19] | Plant response rating (scale of 0 to 100 where 0 is no effect and 100 is complete control), Corn [12] | Corn plant response rating [12]
70: Wheat plant response rating [3, 16] | Plant response rating, Barnyardgrass [4] | Ryegrass, Italian plant response rating [6, 18] | Plant response rating, Galium [11, 19]
30: Plant response rating, Corn [12, 19]
60: Plant response rating (scale of 0 to 100 where 0 is no effect and 100 is complete control), Galium [11]
95: Plant response rating (scale of 0 to 100), Ryegrass, Italian ([6]; Preemergence, 250 g ai/ha) | Crabgrass, Large plant response rating [7, 18]
10: Plant response rating, Wheat [10, 20] | Plant response rating, Corn [12, 20]
50: Blackgrass plant response rating [5, 17]

CCCNC(=O)c1cc(OCC)n(Cc2ccnc(OC(F)F)c2)n1 [Compound 136]
95: Plant response rating, Ryegrass, Italian ([6]; 13 to 15 days) | Ryegrass, Italian plant response rating [6, 21]
90: Wheat plant response rating [3, 15] | Blackgrass plant response rating [5, 18] | Plant response rating, Blackgrass ([5]; 13 to 15 days) | Blackgrass plant response rating [5, 21] | Ryegrass, Italian plant response rating [6, 18]
55: Ryegrass, Italian plant response rating [6, 17]
85: Blackgrass plant response rating [5, 17]
100: Pigweed plant response rating [1, 13] | Pigweed plant response rating [1, 14] | Pigweed plant response rating [2, 15] | Crabgrass, Large plant response rating [7, 17] | Crabgrass, Large plant response rating [7, 18] | Plant response rating, Crabgrass, Large ([7]; 13 to 15 days) | Crabgrass, Large plant response rating [7, 21] | Foxtail, Giant plant response rating [8, 17] | Foxtail, Giant plant response rating [8, 18] | Plant response rating, Foxtail, Giant ([8]; 13 to 15 days) | Foxtail, Giant plant response rating [8, 21] | Oilseed Rape plant response rating [9, 17] | Oilseed Rape plant response rating [9, 18] | Plant response rating, Oilseed Rape ([9]; 13 to 15 days) | Oilseed Rape plant response rating [9, 21]
50: Plant response rating, Barnyardgrass [4]
15: Plant response rating, Wheat [10, 19] | Plant response rating, Corn [12, 20]
5: Plant response rating (scale of 0 to 100 where 0 is no effect and 100 is complete control), Wheat [10] | Wheat plant response rating [10]
60: Wheat plant response rating [3, 16] | Plant response rating (scale of 0 to 100 where 0 is no effect and 100 is complete control), Galium [11] | Galium plant response rating [11] | Plant response rating, Galium [11, 20]
25: Plant response rating, Corn [12, 19]
80: Pigweed plant response rating [2, 16] | Plant response rating, Galium [11, 19]
10: Plant response rating, Wheat [10, 20] | Plant response rating (scale of 0 to 100 where 0 is no effect and 100 is complete control), Corn [12] | Corn plant response rating [12]
